What follows are molecules tested against T1, Renin (Homo sapiens, UniProt P00797) (assay: Renin inhibition in human plasma (angiotensin I release, radioimmunoassay)). Conditions: 37°C, 1 h incubation, phosphate buffer pH 7.4, max. 1 % DMSO, read from % residual plasma renin activity vs. concentration, read-out: IC₅₀.
T1 construct: Das Blut wird von freiwilligen Probanden gewonnen; from tissue; host or cells: human blood plasma (EDTA) from volunteers
T1 sequence (P00797 67-406): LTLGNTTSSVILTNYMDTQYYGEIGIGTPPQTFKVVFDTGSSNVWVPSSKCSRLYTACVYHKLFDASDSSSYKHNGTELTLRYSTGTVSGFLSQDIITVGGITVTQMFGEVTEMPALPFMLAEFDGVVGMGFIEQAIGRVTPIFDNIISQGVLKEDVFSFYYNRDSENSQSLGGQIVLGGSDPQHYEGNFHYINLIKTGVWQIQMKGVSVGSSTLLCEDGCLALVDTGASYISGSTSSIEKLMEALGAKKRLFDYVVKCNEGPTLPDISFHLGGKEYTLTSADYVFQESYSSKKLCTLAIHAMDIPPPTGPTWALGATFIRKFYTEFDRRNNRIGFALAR
Format: biochemical
Method: Die Wirksamkeit von Renin-Hemmern kann durch in-vitro-Tests überprüft werden. Hierbei wird die Verminderung der Bildung von Angiotensin I in verschiedenen Systemen (Humanplasma, gereinigtes Humanrenin) gemessen.
Z.B. Humanplasma, welches sowohl Renin als auch Angiotensinogen enthält, wird bei 37°C mit der zu testenden Verbindung inkubiert. Dabei wird aus Angiotensinogen unter der Einwirkung von Renin Angiotensin I freigesetzt, das anschließend mit einem handelsüblichen Radioimmunoassay gemessen werden kann. Diese Angiotensin-Freisetzung wird durch Renin-Inhibitoren gehemmt.
Das Blut wird von freiwilligen Probanden gewonnen (ca. 0,5 l pro Person; Bluko-Entnahmegerät der Fa. ASID Bonz und Sohn, Unterschleißheim) und in teilweise evakuierten Flaschen unter Eiskühlung aufgefangen. Die Gerinnung wird durch Zugabe von EDTA (Endkonzentration 10 mM) verhindert. Nach dem Zentrifugieren (Rotor HS 4 (Sorvall), 3 500 Upm, 0-4°C, 15 min; wiederholen, falls erforderlich) wird das Plasma vorsichtig abpipettiert und in geeigneten Portionen bei -30°C eingefroren. Für den Test werden nur Plasmen mit ausreichend hoher Reninaktivität verwendet. Plasmen mit niedriger Reninaktivität werden durch eine Kältebehandlung (-4°C, 3 Tage) aktiviert (Prorenin → Renin).
Angiotensin I wird mit dem Renin-Maia®-Kit (Serono Diagnostics S.A., Coinsins, Schweiz) bestimmt. Die Inkubation des Plasmas wird nach der dort angegebenen Anleitung durchgeführt: Inkubationsansatz: 1000 µl Plasma (bei 0-4°C aufgetaut) 100 µl Phosphatpuffer (pH 7,4) Zusatz von 10⁻⁴ M Ramiprilat) 10 µl PMSF-Lösung 10 µl 0,1 % Genapol PFIC 12 µl DMSO bzw. Testpräparat
Die Testpräparate werden i.a. 10⁻² M in 100 % Dimethylsulfoxid (DMSO) gelöst und mit DMSO entsprechend verdünnt; der Inkubationsansatz enthält max. 1 % DMSO.
Die Ansätze werden in Eis gemischt und für 1 Stunde zur Inkubation in ein Wasserbad (37°C) gestellt. Aus einem zusätzlichen Ansatz ohne Inhibitor werden ohne weitere Inkubation insgesamt 6 Proben (jeweils 100 µl) zur Bestimmung des Ausgangs-Angiotensin I-Gehaltes des verwendeten Plasmas entnommen.
Die Konzentrationen der Testpräparate werden so gewählt, daß etwa der Bereich von 10-90 % Enzymhemmung abgedeckt ist (mindestens fünf Konzentrationen). Am Ende der Inkubationszeit werden aus jedem Ansatz drei 100 µl-Proben in vorgekühlten Eppendorf-Gefäßen auf Trockeneis eingefroren und bei ca. -25°C für die Angiotensin I-Bestimmung aufbewahrt (Mittelwert aus drei Einzelproben).
Es wird exakt der Gebrauchsanweisung des RIA-Kits (Renin-Maia®-Kit, Serono Diagnostics S.A., Coinsins, Schweiz) befolgt.
Die Eichkurve umfaßt den Bereich von 0,2 bis 25,0 ng Angiotensin I pro ml. Der Basis-Angiotensin I-Gehalt des Plasmas wird von allen Meßwerten abgezogen. Die Plasma-Renin-Aktivität (PRA) wird als ng Ang I/ml x Stunde angegeben. PRA-Werte in Gegenwart der Testsubstanzen werden auf einen Ansatz ohne Inhibitor (= 100 %) bezogen und als % Restaktivität angegeben. Aus der Auftragung von % Restaktivität gegen die Konzentration (M) des Testpräparates (logarithmische Skala) wird der IC₅₀-Wert abgelesen.

Compound | IC50
CCC[C@H](NC(=O)[C@H](Cc1ccccc1)NC(=O)NCC(C)(C)C)C(=O)N[C@@H](CC1CCCCC1)[C@@H](O)CCCc1ccccn1 [Beispiel 3, 1-Cyclohexyl-6-(2-pyridyl)-2S-(N-(2,2-dimethylpropylaminocarbonyl-Phe-Nva)-amino)-3S-hexanol] | 900 nM
CC(C)(C)NC(=O)N[C@@H](Cc1ccccc1)C(=O)N[C@@H](CC(N)=O)C(=O)N[C@@H](CC1CCCCC1)[C@@H](O)CCCc1ccccn1 [Beispiel 14] | 8000 nM
CCNC(=O)N[C@@H](Cc1ccccc1)C(=O)N[C@@H](Cc1c[nH]cn1)C(=O)N[C@@H](CC1CCCCC1)[C@@H](O)CCCc1ccccn1 [Beispiel 1, 1-Cyclohexyl-6-(2-pyridyl)-2S-(N-(ethylaminocarbonyl-Phe-His)-amino)-3S-hexanol] | 2000 nM
CCC[C@H](NC(=O)[C@H](Cc1ccccc1)NC(=O)NC(C)C)C(=O)N[C@@H](CC1CCCCC1)[C@H](O)CCCc1ccccn1 [Beispiel 12, 1-Cyclohexyl-6-(2-pyridyl)-2S-(N-(isopropylaminocarbonyl-Phe-Nva)-amino)-3R-hexanol] | 5500 nM
CCC[C@H](NC(=O)[C@H](Cc1ccc(OC)cc1)NC(=O)NC(C)(C)C)C(=O)N[C@@H](CC1CCCCC1)[C@@H](O)CCCc1ccccn1 [Beispiel 8] | > 10000 nM
CCC[C@H](NC(=O)[C@H](Cc1ccccc1)NC(=O)NC(C)(C)C(=O)O)C(=O)N[C@@H](CC1CCCCC1)[C@@H](O)CCCc1ccccn1 [Beispiel 29, 1-Cyclohexyl-6-(2-pyridyl)-2S-[N-[(1-carboxy-1-methylethylaminocarbonyl)-Phe-Nva]-amino]-3S-hexanol] | 650 nM
CC(C)(C)NC(=O)N[C@@H](Cc1ccccc1)C(=O)N[C@@H](Cc1c[nH]cn1)C(=O)N[C@@H](CC1CCCCC1)[C@@H](O)CCCc1ccccn1 [Beispiel 5] | 1000 nM
CCC[C@H](NC(=O)[C@H](Cc1ccccc1)NC(=O)NCC)C(=O)N[C@@H](CC1CCCCC1)[C@@H](O)CCCc1ccccn1 [Beispiel 4, 1-Cyclohexyl-6-(2-pyridyl)-2S-(N-(ethylaminocarbonyl-Phe-Nva)-amino)-3S-hexanol] | 380 nM
CCC[C@H](NC(=O)[C@H](Cc1ccccc1)NC(=O)NC(C)(C)C)C(=O)N[C@@H](CC1CCCCC1)[C@H](O)CCCc1ccccn1 [Beispiel 9, 1-Cyclohexyl-6-(2-pyridyl)-2S-(N-(tert.butylaminocarbonyl-Phe-Nva)-amino)-3R-hexanol] | 6500 nM
CCC[C@H](NC(=O)[C@H](Cc1ccccc1)NC(=O)NC(C)(C)C)C(=O)N[C@@H](CC1CCCCC1)[C@@H](O)CCCc1ccccn1 [Beispiel 6, 1-Cyclohexyl-6-(2-pyridyl)-2S-(N-(tert.butylaminocarbonyl-Phe-Nva)-amino)-3S-hexanol] | 400 nM
CCC[C@H](NC(=O)[C@H](Cc1ccccc1)NC(=O)NC(C)C)C(=O)N[C@@H](CC1CCCCC1)[C@@H](O)CCCc1ccccn1 [Beispiel 2, 1-Cyclohexyl-6-(2-pyridyl)-2S-(N-(isopropylaminocarbonyl-Phe-Nva)-amino)-3S-hexanol] | 620 nM
CCC[C@H](NC(=O)[C@H](Cc1cccs1)NC(=O)NC(C)(C)C)C(=O)N[C@@H](CC1CCCCC1)[C@@H](O)CCCc1ccccn1 [Beispiel 7, 1-Cyclohexyl-6-(2-pyridyl)-2S-(N-(tert.butylaminocarbonyl-Thi-Nva)-amino)-3S-hexanol] | 260 nM
CC(C)(C)NC(=O)N[C@@H](Cc1ccccc1)C(=O)N[C@@H](Cc1c[nH]cn1)C(=O)N[C@@H](CC1CCCCC1)[C@H](O)CCCc1ccccn1 [Beispiel 10, 1-Cyclohexyl-6-(2-pyridyl)-2S-(N-(tert.butylaminocarbonyl-Phe-His)-amino)-3R-hexanol] | > 1000 nM
CCNC(=O)N[C@@H](Cc1ccccc1)C(=O)N[C@@H](Cc1c[nH]cn1)C(=O)N[C@@H](CC1CCCCC1)[C@H](O)CCCc1ccccn1 [Beispiel 11, 1-Cyclohexyl-6-(2-pyridyl)-2S-(N-(ethylaminocarbonyl-Phe-His)-amino)-3R-hexanol] | 900 nM
CCC[C@H](NC(=O)[C@H](Cc1ccccc1)NC(=O)NCC(C)(C)N)C(=O)N[C@@H](CC1CCCCC1)[C@@H](O)CCCc1ccccn1 [Beispiel 13, 1-Cyclohexyl-6-(2-pyridyl)-2S-(N-(2-amino-2-methylpropylaminocarbonyl-Phe-Nva)-amino)-3S-hexanol] | 340 nM

Source: EP0370382A2, “Urea dipeptide derivatives with a renin-inhibiting activity, process to produce them, compositions containing them and their use” (HOECHST AKTIENGESELLSCHAFT, priority 1988, dated 1990)
